According to patent US12128035B2, “Activating pyruvate kinase R” (Novo Nordisk Health Care AG, priority 2021, dated 2024):

System: 2,3-DPG blood levels
Test: Phase 1 SAD/MAD: blood 2,3-DPG (LC-MS/MS) in healthy volunteers
Assay type: in vivo, human
Details: for median and mean reduction in 2,3-DPG, relative to baseline: all MAD dose levels
Protocol: In this study, SAD/MAD cohorts are randomized (3 to 1) to receive Compound 1 or placebo (P). Compound 1 was evaluated first in 4 healthy SAD cohorts and 4 healthy MAD (14-day dosing period) cohorts. Based on the safety, and PK/PD profile from HS, Compound 1 is then evaluated in 1 SCD SAD cohort and 2 SCD MAD cohorts. Specifically, based on the safety and pharmacokinetic/pharmacodynamics (PK/PD) profile in healthy volunteer studies, Compound 1 is evaluated in patients (pts) with SCD, first in a single dose (SD or SAD) cohort and then in multiple-dose (MD or MAD) cohorts (14-day and 12-week). Safety assessments include AEs, vital signs, ECGs and laboratory parameters. PK/PD blood sampling was performed on Day 1 (SAD/MAD) and Day 14 (MAD) and up to 72 h after the last dose and at the end-of-study visit. PD parameters included 2,3-DPG, ATP, and p50 in all cohorts with additional PD studies (including oxygen scan) performed only in the SCD cohorts. PD parameters included 2,3-DPG, ATP, p50, RBC deformability with controlled deoxygenation and reoxygenation (Lorrca® oxygen scan) and varying osmolality (Lorrca® osmoscan)). To maintain study blind, pt identifiers were removed when needed.
In the SAD cohorts, the subjects' blood 2,3-DPG levels were measured periodically after dosing by a qualified LC-MS/MS method for the quantitation of 2,3-DPG in blood. Decreased 2,3-DPG blood levels were observed 6 hours following a single dose of Compound 1 at all dose levels (earlier timepoints were not collected). Maximum decreases in 2,3-DPG levels generally occurred ˜24 hours after the first dose with the reduction sustained ˜48-72 hr postdose. Table 15 reports the median percentage change in 2,3-DPG blood levels, relative to baseline, measured over time in healthy volunteers after a single dose of Compound 1 (200 mg, 400 mg, 700 mg, or 1000 mg) or placebo. Table 16 reports the mean percentage change in 2,3-DPG blood levels, relative to baseline, measured over time in healthy volunteers after a single dose of Compound 1 (200 mg, 400 mg, 700 mg, or 1000 mg). Accordingly, the median and mean reduction in the concentration of 2,3-DPG, relative to baseline, was at least about 30% at all dose levels tested 24 hours after administration of the single dose.
In the MAD cohorts, the subjects' blood 2,3-DPG levels were measured periodically after dosing by a qualified LC-MS/MS method for the quantitation of 2,3-DPG in blood. […] Table 18B reports the mean percentage change in 2,3-DPG blood levels, relative to baseline, measured over time after the first dose on days 1 and 14 in healthy volunteers who received daily doses of Compound 1 (100 mg BID, 200 mg BID, 300 mg BID, or 400 mg QD) for 14 days. Accordingly, the median and mean reduction in the concentration of 2,3-DPG, relative to baseline, was at least about 25% at all dose levels tested 24 hours after administration of the first dose on day 1 and at least about 40% at all dose levels tested 24 hours after administration of the first dose on day 14.
The following procedures are employed for the analysis of ATP and 2,3-DPG in human whole blood K2EDTA using a protein precipitation extraction procedure and analysis by LC-MS/MS.
The following procedures are used for sample extraction prior to analysis via LC-MS/MS. 15.0 μL of the calibration standards, quality controls, matrix blanks, and samples are aliquoted into a 96-well plate. 50.0 μL of the internal standard spiking solution is added to all samples on the plate, with the exception of the matrix blank samples; 50.0 μL of water is added to the matrix blank samples. Subsequently, 150 μL of water is added to all samples on the plate. The plate is then covered and agitated by vortex at high speed for ten minutes, after which 750 μL of methanol is added to all samples on the plate. The plate is covered and agitated by vortex for approximately 1 minute. The plate is then centrifuged at approximately 3500 RPM at approximately 4° C. for five minutes. […]

[1] = HV 400 mg QD, Day 14, 8 h after first daily dose
[2] = HV 400 mg QD, Day 14, 12 h after first daily dose
[3] = HV 400 mg QD, Day 14, 16 h after first daily dose
[4] = HV 400 mg QD, Day 14, 24 h after first daily dose
[5] = HV 400 mg QD, Day 14, 48 h after first daily dose
[6] = HV 400 mg QD, Day 14, 72 h after first daily dose
[7] = HV single 200 mg, 0 h after dose
[8] = HV single 200 mg, 6 h after dose
[9] = HV single 200 mg, 8 h after dose
[10] = HV single 200 mg, 12 h after dose
[11] = HV single 200 mg, 16 h after dose
[12] = HV single 200 mg, 24 h after dose
[13] = HV single 200 mg, 36 h after dose
[14] = HV single 200 mg, 48 h after dose
[15] = HV single 200 mg, 72 h after dose
[16] = HV single 400 mg, 0 h after dose
[17] = HV single 400 mg, 6 h after dose
[18] = HV single 400 mg, 8 h after dose
[19] = HV single 400 mg, 12 h after dose
[20] = HV single 400 mg, 16 h after dose
[21] = HV single 400 mg, 24 h after dose
[22] = HV single 400 mg, 36 h after dose
[23] = HV single 400 mg, 48 h after dose
[24] = HV single 400 mg, 72 h after dose
[25] = HV single 700 mg, 0 h after dose
[26] = HV single 700 mg, 6 h after dose
[27] = HV single 700 mg, 8 h after dose
[28] = HV single 700 mg, 12 h after dose
[29] = HV single 700 mg, 16 h after dose
[30] = HV single 700 mg, 24 h after dose
[31] = HV single 700 mg, 36 h after dose
[32] = HV single 700 mg, 48 h after dose
[33] = HV single 700 mg, 72 h after dose
[34] = HV single 1000 mg, 0 h after dose
[35] = HV single 1000 mg, 6 h after dose
[36] = HV single 1000 mg, 8 h after dose
[37] = HV single 1000 mg, 12 h after dose
[38] = HV single 1000 mg, 16 h after dose
[39] = HV single 1000 mg, 24 h after dose
[40] = HV single 1000 mg, 36 h after dose
[41] = HV single 1000 mg, 48 h after dose
[42] = HV single 1000 mg, 72 h after dose

## O=C([C@H](CO)c1ccccc1)N1CC2=C(C1)CN(S(=O)(=O)c1cnc3c(c1)OCCO3)C2 (single isomer, unassigned) [Compound 1]
[1]
  Mean Percentage Change in 2,3-DPG Levels: −55%
  Median Percentage Change in 2,3-DPG Levels: −56%
[2]
  Mean Percentage Change in 2,3-DPG Levels: −50%
  Median Percentage Change in 2,3-DPG Levels: −49%
[3]
  Mean Percentage Change in 2,3-DPG Levels: −51%
  Median Percentage Change in 2,3-DPG Levels: −52%
[4]
  Mean Percentage Change in 2,3-DPG Levels: −53%
  Median Percentage Change in 2,3-DPG Levels: −53%
[5]
  Mean Percentage Change in 2,3-DPG Levels: −38%
  Median Percentage Change in 2,3-DPG Levels: −40%
[6]
  Mean Percentage Change in 2,3-DPG Levels: −28%
  Median Percentage Change in 2,3-DPG Levels: −25%
HV MAD cohorts, Day 14
  maximum decrease in 2,3-DPG from baseline (median): 55%
HV MAD, all doses and timepoints (N = 36)
  Mean Maximum Percent Change from Baseline, 2,3-DPG: −56.3%
HV SAD cohorts
  2,3-DPG reduction sustained postdose: 48 to 72 h
HV SAD, all doses and timepoints (N = 24)
  Mean Maximum Percent Change from Baseline, 2,3-DPG: −46.8%
[7]
  Mean Percentage Change in 2,3-DPG Levels: 0%
  Median Percentage Change in 2,3-DPG Levels: 0.0%
[8]
  Mean Percentage Change in 2,3-DPG Levels: −17%
  Median Percentage Change in 2,3-DPG Levels: −18%
[9]
  Mean Percentage Change in 2,3-DPG Levels: −21%
  Median Percentage Change in 2,3-DPG Levels: −17%
[10]
  Mean Percentage Change in 2,3-DPG Levels: −26%
  Median Percentage Change in 2,3-DPG Levels: −25%
[11]
  Mean Percentage Change in 2,3-DPG Levels: −28%
  Median Percentage Change in 2,3-DPG Levels: −33%
[12]
  Mean Percentage Change in 2,3-DPG Levels: −30%
  Median Percentage Change in 2,3-DPG Levels: −31%
[13]
  Mean Percentage Change in 2,3-DPG Levels: −31%
  Median Percentage Change in 2,3-DPG Levels: −33%
[14]
  Mean Percentage Change in 2,3-DPG Levels: −33%
  Median Percentage Change in 2,3-DPG Levels: −29%
[15]
  Mean Percentage Change in 2,3-DPG Levels: −14%
  Median Percentage Change in 2,3-DPG Levels: −18%
HV single 400 mg
  time of pharmacodynamic maximum (minimum of the 2,3-DPG concentration): ~24 h
[16]
  Mean Percentage Change in 2,3-DPG Levels: 0%
  Median Percentage Change in 2,3-DPG Levels: 0.0%
[17]
  Mean Percentage Change in 2,3-DPG Levels: −24%
  Median Percentage Change in 2,3-DPG Levels: −23%
[18]
  Mean Percentage Change in 2,3-DPG Levels: −29%
  Median Percentage Change in 2,3-DPG Levels: −29%
[19]
  Mean Percentage Change in 2,3-DPG Levels: −35%
  Median Percentage Change in 2,3-DPG Levels: −40%
[20]
  Mean Percentage Change in 2,3-DPG Levels: −38%
  Median Percentage Change in 2,3-DPG Levels: −35%
[21]
  Mean Percentage Change in 2,3-DPG Levels: −41%
  Median Percentage Change in 2,3-DPG Levels: −39%
[22]
  Mean Percentage Change in 2,3-DPG Levels: −37%
  Median Percentage Change in 2,3-DPG Levels: −38%
[23]
  Mean Percentage Change in 2,3-DPG Levels: −34%
  Median Percentage Change in 2,3-DPG Levels: −31%
[24]
  Mean Percentage Change in 2,3-DPG Levels: −30%
  Median Percentage Change in 2,3-DPG Levels: −30%
[25]
  Mean Percentage Change in 2,3-DPG Levels: 0%
  Median Percentage Change in 2,3-DPG Levels: 0.0%
[26]
  Mean Percentage Change in 2,3-DPG Levels: −30%
  Median Percentage Change in 2,3-DPG Levels: −29%
[27]
  Mean Percentage Change in 2,3-DPG Levels: −29%
  Median Percentage Change in 2,3-DPG Levels: −28%
[28]
  Mean Percentage Change in 2,3-DPG Levels: −41%
  Median Percentage Change in 2,3-DPG Levels: −41%
[29]
  Mean Percentage Change in 2,3-DPG Levels: −46%
  Median Percentage Change in 2,3-DPG Levels: −46%
[30]
  Mean Percentage Change in 2,3-DPG Levels: −49%
  Median Percentage Change in 2,3-DPG Levels: −49%
[31]
  Mean Percentage Change in 2,3-DPG Levels: −47%
  Median Percentage Change in 2,3-DPG Levels: −46%
[32]
  Mean Percentage Change in 2,3-DPG Levels: −48%
  Median Percentage Change in 2,3-DPG Levels: −48%
[33]
  Mean Percentage Change in 2,3-DPG Levels: −32%
  Median Percentage Change in 2,3-DPG Levels: −33%
[34]
  Mean Percentage Change in 2,3-DPG Levels: 0%
  Median Percentage Change in 2,3-DPG Levels: 0.0%
[35]
  Mean Percentage Change in 2,3-DPG Levels: −18%
  Median Percentage Change in 2,3-DPG Levels: −21%
[36]
  Mean Percentage Change in 2,3-DPG Levels: −31%
  Median Percentage Change in 2,3-DPG Levels: −33%
[37]
  Mean Percentage Change in 2,3-DPG Levels: −35%
  Median Percentage Change in 2,3-DPG Levels: −38%
[38]
  Mean Percentage Change in 2,3-DPG Levels: −40%
  Median Percentage Change in 2,3-DPG Levels: −40%
[39]
  Mean Percentage Change in 2,3-DPG Levels: −44%
  Median Percentage Change in 2,3-DPG Levels: −48%
[40]
  Mean Percentage Change in 2,3-DPG Levels: −46%
  Median Percentage Change in 2,3-DPG Levels: −47%
[41]
  Mean Percentage Change in 2,3-DPG Levels: −43%
  Median Percentage Change in 2,3-DPG Levels: −44%
[42]
  Mean Percentage Change in 2,3-DPG Levels: −27%
  Median Percentage Change in 2,3-DPG Levels: −24%
HV single 200, 400, 700 or 1000 mg
  lag of maximum decrease in blood 2,3-DPG behind maximum plasma concentration: about 24 hours
HV single dose (400 mg), FIG. 41
  time of maximal decrease in blood 2,3-DPG post-dose: 16 to 24 h
MAD study
  mean maximum reduction in the concentration of 2,3-DPG: at least 50%
  mean maximum reduction of 2,3-DPG, range: 46.1-63.6%
SAD study
  mean maximum reduction in the concentration of 2,3-DPG: at least 40%
  mean maximum reduction of 2,3-DPG, range: 35.4-56.1%
24 hours after first dose on day 1
  median and mean reduction in 2,3-DPG, relative to baseline: at least 25%
24 hours after first dose on day 14
  median and mean reduction in 2,3-DPG, relative to baseline: at least 40%
All SAD dose levels, 24 hours after the single dose
  median and mean reduction in the concentration of 2,3-DPG, relative to baseline: at least 30%
